Experimental data: patent US12077503B2, “Substituted cyclic amides and their use as herbicides” (FMC CORPORATION, priority 2015, dated 2024)

Columns and labels:
Type in all cases: in vivo
[1] = tested on: corn (Zea mays); test: Test G Pre-Emergence Protocol; settings: evaluated after 13 days
Description: (§1) Seeds of corn (Zea mays), giant foxtail (Setaria faberi), barnyardgrass (Echinochloa crus-galli), ivy-leaved morning glory (Ipomoea hederacea), redroot pigweed (Amaranthus retroflexus) and velvetleaf (Abutilon theophrasti) were sown in standard soil in pots. After cultivation for one day under controlled conditions in a glasshouse (at 24/16° C., day/night; 14 hours light; 65% humidity), the plants were sprayed with an aqueous spray solution derived from the formulation of the technical active ingredient in acetone/water (50:50) solution containing 0.5% Tween 20 (polyoxyethylene sorbitan monolaurate, CAS RN 9005-64-5) to give a final dose of 15.625, 62.5 or 250 g/ha of test compound.
(§2) The test plants were then grown on under controlled conditions in a glasshouse (at 24/16° C., day/night; 14 hours light; 65% humidity) and watered twice daily. After 13 days the test was evaluated (100=total damage to plant; 0=no damage to plant). A dash (-) means no test result.

[2] = tested on: redroot pigweed (Amaranthus retroflexus); test: Test G Pre-Emergence Protocol; settings: evaluated after 13 days
Description: as §1, §2

[3] = tested on: velvetleaf (Abutilon theophrasti); test: Test G Pre-Emergence Protocol; settings: evaluated after 13 days
Description: as §1, §2

[4] = tested on: giant foxtail (Setaria faberi); test: Test G Pre-Emergence Protocol; settings: evaluated after 13 days
Description: as §1, §2

[5] = tested on: ivy-leaved morning glory (Ipomoea hederacea); test: Test G Pre-Emergence Protocol; settings: evaluated after 13 days
Description: as §1, §2

[6] = tested on: barnyardgrass (Echinochloa crus-galli); test: Test G Pre-Emergence Protocol; settings: evaluated after 13 days
Description: as §1, §2

[7] = tested on: corn (Zea mays); test: Test G Post-Emergence Protocol
Description: as §1, with “8 days” for “one day”
as §2

[8] = tested on: redroot pigweed (Amaranthus retroflexus); test: Test G Post-Emergence Protocol
Description: as §1, with “8 days” for “one day”
as §2

[9] = tested on: velvetleaf (Abutilon theophrasti); test: Test G Post-Emergence Protocol
Description: as §1, with “8 days” for “one day”
as §2

[10] = tested on: giant foxtail (Setaria faberi); test: Test G Post-Emergence Protocol
Description: as §1, with “8 days” for “one day”
as §2

[11] = tested on: ivy-leaved morning glory (Ipomoea hederacea); test: Test G Post-Emergence Protocol
Description: as §1, with “8 days” for “one day”
as §2

[12] = tested on: barnyardgrass (Echinochloa crus-galli); test: Test G Post-Emergence Protocol
Description: as §1, with “8 days” for “one day”
as §2

[13] = 62.5 g ai/ha, 100=total damage to plant, 0=no damage to plant
[14] = 15.625 g ai/ha, evaluated after 13 days (100=total damage to plant; 0=no damage to plant)
[15] = 62.5 g ai/ha, evaluated after 13 days
[16] = 250 g ai/ha, evaluated after 13 days

COc1ccc([C@@H]2CN(C)C(=O)[C@H]2C(=O)Nc2ccccc2F)cc1[N+](=O)[O-] (racemic) [Compound 1417]
20: damage to plant, Corn (100=total damage to plant; 0=no damage to plant) [7, 16] | Pigweed, Redroot damage rating [8, 14] | Velvetleaf damage rating (100=total damage to plant; 0=no damage to plant) [9, 15] | damage to plant, Velvetleaf (100=total damage to plant; 0=no damage to plant) [9, 16] | Morningglory, Ivy-leaved damage rating (100=total damage to plant; 0=no damage to plant) [11, 15]
30: Pigweed, Redroot damage rating (100=total damage to plant; 0=no damage to plant) ([2]; 250 g ai/ha) | Morningglory, Ivy-leaved damage rating (100=total damage to plant; 0=no damage to plant) ([5]; 250 g ai/ha) | damage to plant, Pigweed, Redroot (100=total damage to plant; 0=no damage to plant) [8, 16] | damage to plant, Morningglory, Ivy-leaved (100=total damage to plant; 0=no damage to plant) [11, 16]
60: plant damage rating, Barnyardgrass [6, 13] | damage to plant, Barnyardgrass (100=total damage to plant; 0=no damage to plant) [12, 16]
40: Barnyardgrass damage rating (100=total damage to plant; 0=no damage to plant) [12, 15]
0: Corn damage rating (100=total damage to plant; 0=no damage to plant) ([1]; 15.625 g ai/ha) | plant damage rating, Corn [1, 13] | Corn damage rating (100=total damage to plant; 0=no damage to plant) ([1]; 250 g ai/ha) | Pigweed, Redroot damage rating (100=total damage to plant; 0=no damage to plant) ([2]; 15.625 g ai/ha) | plant damage rating, Pigweed, Redroot [2, 13] | Velvetleaf damage rating (100=total damage to plant; 0=no damage to plant) ([3]; 15.625 g ai/ha) | plant damage rating, Velvetleaf [3, 13] | Velvetleaf damage rating (100=total damage to plant; 0=no damage to plant) ([3]; 250 g ai/ha) | Foxtail, Giant damage rating (100=total damage to plant; 0=no damage to plant) ([4]; 15.625 g ai/ha) | Morning-glory, Ivy-leaved damage rating (100=total damage to plant; 0=no damage to plant) ([5]; 15.625 g ai/ha) | plant damage rating, Morningglory, Ivy-leaved [5, 13] | Barnyardgrass damage rating (100=total damage to plant; 0=no damage to plant) ([6]; 15.625 g ai/ha) | Corn damage rating [7, 14] | Foxtail, Giant damage rating [10, 14] | Morningglory, Ivy-leaved damage rating [11, 14]
90: Foxtail, Giant damage rating (100=total damage to plant; 0=no damage to plant) ([4]; 250 g ai/ha)
80: plant damage rating, Foxtail, Giant [4, 13] | Barnyardgrass damage rating (100=total damage to plant; 0=no damage to plant) ([6]; 250 g ai/ha)
70: Foxtail, Giant damage rating (100=total damage to plant; 0=no damage to plant) [10, 15] | damage to plant, Foxtail, Giant (100=total damage to plant; 0=no damage to plant) [10, 16]
10: Corn damage rating (100=total damage to plant; 0=no damage to plant) [7, 15] | Pigweed, Redroot damage rating (100=total damage to plant; 0=no damage to plant) [8, 15] | Velvetleaf damage rating [9, 14] | Barnyardgrass damage rating [12, 14]
